Measurements as given in ChEMBL document CHEMBL1125697, “Synthesis and pharmacological examination of 1-(3-methoxy-4-methylphenyl)-2-aminopropane and 5-methoxy-6-methyl-2-aminoindan: similarities to 3,4-(methylenedioxy)methamphetamine (MDMA)” (J Med Chem, 1991).
pIC50: −log10 of the molar value. Values joined by “and” are separate entries in the source; they are usually repeats but may differ in a detail not shown here. Equal entries are not always repeated.

Columns and labels:
Rattus norvegicus [1] = species on record: Rattus norvegicus; assay: Effective dose was evaluated for drug discrimination in I-trained rats; type: functional
Rattus norvegicus [2] = species on record: Rattus norvegicus; assay: Compound was evaluated for the uptake inhibition of [3H]-5-HT in rats; type: functional

In the case of `CC[C@@H](Cc1ccc2c(c1)OCO2)NC`, the ED50 (Rattus norvegicus [1]) was 0.79 mg/kg and 3.25 µmol/kg.

`COc1cc(CC(C)N)c(OC)cc1C` (configuration not stated) [DOM] showed a pIC50 (Rattus norvegicus [2]) of 4.97.
